Experimental data as given in patent US20180177890A1, “LIGAND-CYTOTOXIC DRUG CONJUGATE, PREPARATION METHOD THEREOF, AND USE THEREOF” (priority 2015, published 2018).
Numbered stars: 1 amine (or outer) side, 2 acyl side, 3 side chain; on linkers, the order of the positions; unused ones are H or OH. Square brackets hold non-standard residues; d marks the D form. Peptide text beside a SMILES is read from it. X1 = CO[C@H]([C@@H](C)C(=O)[*:2])[C@@H]1C[C@@H]2C[C@@H]2N1[*:1]; X2 = CO[C@H]([C@@H](C)C(=O)[*:2])[C@@H]1CC2(CC2)CN1[*:1]; X4 = C=C1C[C@@H]([C@H](OC)[C@@H](C)C(=O)[*:2])N([*:1])C1; Dolaproine = CO[C@@H]([C@@H]1CCCN1)[C@@H](C)C(=O)O; Dil = CC[C@H](C)[C@H](NC)[C@@H](CC(=O)O)OC; Phe(3-Cl) = N[C@@H](Cc1cccc(Cl)c1)C(=O)O; Phe(3-F) = N[C@@H](Cc1cccc(F)c1)C(=O)O; Phe(4-Me) = Cc1ccc(C[C@H](N)C(=O)O)cc1; Phe(2-F) = N[C@@H](Cc1ccccc1F)C(=O)O; 2Thi = N[C@@H](Cc1cccs1)C(=O)O; NMeV = CN[C@H](C(=O)O)C(C)C

What was measured:
[1] = system: NCI-N87 cells (HER2 overexpressing human gastric cancer cells); assay: Tumor inhibition rate test of NCI-N87 transplanted tumor in nude mice; type: in vivo; conditions: 60 mg/kg (first dose doubling), IV
From the text: To evaluate and compare the effect of antibody-cytotoxin conjugates according to the present invention on transplanted tumors of NCI-N87 cells (HER2 overexpressing human gastric cancer cells, ATCC, CRL-5822) in nude mice. […] Preparation method: all prepared with physiological saline. […] Feeding environment: SPF level. […] T/C (%)=(T−T0)/(C−C0)×100%, wherein T and C represent the tumor volume at the end of the experiment; T0 and C0 represent the tumor volume at the beginning of the experiment. […] The number of mice at the beginning of the experiment was as follows: Control group n=12, Treatment group n=6.

A549 tumor cells = assay: In vitro tumor cell proliferation inhibition test (CCK-8), A549; type: cell-based; conditions: Homo sapiens, A549, 76 hours incubation
Procedure: (§1) The objective of this experiment is to test the in vitro inhibition effect of the formula (D) according to the present invention on the proliferation of HepG2 tumor cells (human hepatocellular carcinoma cells, Chinese Academy of Sciences cell bank, No. #TCHu 72) and A549 tumor cells (human lung adenocarcinoma, Chinese Academy of Sciences cell bank, No. #TCHu150). The cells were treated with different concentrations of the compound in vitro. After 76 hours incubation, the cell proliferation was detected by CCK-8 reagent (Cell Counting Kit-8, Dojindo, No. CK04), and the activity of the compound in vitro was evaluated according to the IC50 value.
(§2) The following is an example of a method for in vitro proliferation inhibition test of HepG2 cells for the purpose of exemplifying the test of the compounds according to the present invention for the proliferation inhibitory activity on tumor cells in vitro. This method is also applicable to, but not limited to, the in vitro proliferation inhibition tests on other tumor cells.
(§3) The compound was dissolved with DMSO (dimethylsulfoxide, Shanghai Titan Technology Co., Ltd.) to prepare a storage solution having an initial concentration of 10 mM.
(§4) 10 μl of 10 mM compound was added to the wells of the first column of a U-shaped bottom 96-well plate (sample plate 1), and 90 μl of DMSO was added to each compound sample well of the first column, i.e., the stock solution was diluted 10 times as the starting point. Then, 3-fold gradient dilutions were performed, with each compound concentration […]. The diluent was DMSO solution. 60 μl of 100% DMSO was added to 12th column and 20 μl of 1 mM positive drug control was added to 11th column.
(§5) In a new U-shaped bottom 96-well plate (sample plate 2), each sample from the sample plate 1 was diluted 20 times with the complete medium. Then, in another new U-shaped bottom 96-well plate (sample plate 3), each well sample from the sample plate 2 was subjected to a final 10-fold dilution.
(§6) After the cell pre-culture was completed, the 96-well cell culture plate was removed and the supernatant was discarded. Each sample dilution in the 96-well sample plate 3 was successively added to a 96-well cell culture plate at 100 μl/well. Each compound sample was tested in duplicate at each concentration. […] After completion of the loading operation, the 96-well cell culture plate was incubated at 37° C. for about 76 hours in a 5% CO2 incubator.
(§7) The 96-well cell culture plate was taken and CCK-8 was added to each well at […]. The cell culture plate was gently pat and mixed for more than 10 times and incubated at 37° C. for 2 hours in a 5% CO2 incubator.
(§8) The 96-well cell culture plate was taken and placed in a microplate reader (PerkinElmer, VICTOR 3) and the absorbance at 450 nm was measured using the microplate reader.
In accordance with the above procedure, the inhibition activity of the compound according to the present invention on the proliferation of A549 tumor cells in vitro was tested. The cell culture medium was also DMEM/F12.
(§9) Data was analyzed with Microsoft Excel and Graphpad Prism 5.

HepG2 tumor cells = assay: In vitro tumor cell proliferation inhibition test (CCK-8), HepG2; type: cell-based; conditions: Homo sapiens, HepG2, 76 hours incubation
Procedure: as §1, §2
HepG2 cells in logarithmic growth phase were washed with PBS (phosphate buffer, ThermoFisher) once, and added with 2-3 ml trypsin (0.25% trypsin-EDTA (1×), Gibico, Life Technologies) to digest for 2-3 min. Then, 10-15 ml of cell culture medium (DMEM/F12 medium, Invitrogen; 10% (v/v)) was added after the cells were completely digested. The digested HepG2 cells were eluted, and centrifuged at 1000 rpm for 3 min. The supernatant was discarded, and then 10-20 ml of cell culture medium were added to resuspend the cells to prepare a single cell suspension.
The HepG2 single cell suspension was mixed and the cell density was adjusted to 6×10^4 cells/ml with cell culture medium. The density-adjusted cell suspension was mixed uniformly and added to a 96-well cell culture plate at 100 μl/well. The plates were incubated in a 5% CO2 incubator at 37° C. for 18-20 hours.
as §3, §4, §5, §6, §7, §8, §9

Molecule	Mean tumor volume (mm^3) D0 ([1]; D0, 7, D0 = time of first administration) [mm^3]	% T/C D21 ([1]; D0, 7, D21) [%]	% tumor inhibition rate D21 ([1]; D0, 7, D21) [%]	Mean tumor volume (mm^3) D21 ([1]; D0, 7, D21) [mm^3]	IC50 (A549 tumor cells) [nM]	IC50 (HepG2 tumor cells) [nM]
Pertuzumab	115.5	42	58	380.1	–	–
CC[C@H](C)[C@@H]([C@@H](CC(=O)N1[C@H]2C[C@H]2C[C@H]1[C@H](OC)[C@@H](C)C(=O)N[C@@H](Cc1cccs1)C(=O)O)OC)N(C)C(=O)[C@@H](NC(=O)[C@@H](NC)C(C)C)C(C)C [Compound 16, (S)-2-((2R,3R)-3-((1S,3S,5S)-2-((3R,4S,5S)-4-((S)—N,3-dimethyl-2-((S)-3-methyl-2-(methylamino)butanamido)butanamido)-3-methoxy-5-methylheptanoyl)-2-azabicyclo[3.1.0]hexan-3-yl)-3-methoxy-2-methylpropanamido)-3-(thiophen-2-yl)propanoic acid] (H-[NMeV]V[Dil][X1][2Thi]-OH)	–	–	–	–	53	13.9
CC[C@H](C)[C@@H]([C@@H](CC(=O)N1CCC[C@H]1[C@H](OC)[C@@H](C)C(=O)N[C@@H](Cc1ccc(C)cc1)C(=O)O)OC)N(C)C(=O)[C@@H](NC(=O)[C@@H](NC)C(C)C)C(C)C [Compound 29, (S)-2-((2R,3R)-3-((S)-1-((3R,4S,5S)-4-((S)—N,3-dimethyl-2-((S)-3-methyl-2-(methylamino)butanamido)butanamido)-3-methoxy-5-methylheptanoyl)pyrrolidin-2-yl)-3-methoxy-2-methylpropanamido)-3-(p-tolyl)propanoic acid] (H-[NMeV]V[Dil][Dolaproine][Phe(4-Me)]-OH)	–	–	–	–	1.8	58.6
CC[C@H](C)[C@@H]([C@@H](CC(=O)N1CC2(CC2)C[C@H]1[C@H](OC)[C@@H](C)C(=O)N[C@@H](Cc1ccccc1)C(=O)O)OC)N(C)C(=O)[C@@H](NC(=O)[C@@H](NC)C(C)C)C(C)C [Compound 13, (S)-2-((2R,3R)-3-((S)-5-((3R,4S,5S)-4-((S)—N,3-dimethyl-2-((S)-3-methyl-2-(methylamino)butanamido)butanamido)-3-methoxy-5-methylheptanoyl)-5-azaspiro[2.4]heptan-6-yl)-3-methoxy-2-methylpropanamido)-3-phenylpropanoic acid] (H-[NMeV]V[Dil][X2]F-OH)	–	–	–	–	30.2	11.7
CC[C@H](C)[C@@H]([C@@H](CC(=O)N1CCC[C@H]1[C@H](OC)[C@@H](C)C(=O)N[C@@H](Cc1cccs1)C(=O)O)OC)N(C)C(=O)[C@@H](NC(=O)[C@@H](NC)C(C)C)C(C)C [Compound 35, (S)-2-((2R,3R)-3-((S)-1-((3R,4S,5S)-4-((S)—N,3-dimethyl-2-((S)-3-methyl-2-(methylamino)butanamido)butanamido)-3-methoxy-5-methylheptanoyl)pyrrolidin-2-yl)-3-methoxy-2-methylpropanamido)-3-(thiophen-2-yl)propanoic acid] (H-[NMeV]V[Dil][Dolaproine][2Thi]-OH)	–	–	–	–	18	30.6
CC[C@H](C)[C@@H]([C@@H](CC(=O)N1CC2(CC2)C[C@H]1[C@H](OC)[C@@H](C)C(=O)N[C@@H](Cc1ccccc1F)C(=O)O)OC)N(C)C(=O)[C@@H](NC(=O)[C@@H](NC)C(C)C)C(C)C [Compound 11, (S)-2-((2R,3R)-3-((S)-5-((3R,4S,5S)-4-((S)—N,3-dimethyl-2-((S)-3-methyl-2-(methylamino)butanamido)butanamido)-3-methoxy-5-methylheptanoyl)-5-azaspiro[2.4]heptan-6-yl)-3-methoxy-2-methylpropanamido)-3-(2-fluorophenyl)propanoic acid] (H-[NMeV]V[Dil][X2][Phe(2-F)]-OH)	–	–	–	–	27.2	6.6
CC[C@H](C)[C@@H]([C@@H](CC(=O)N1CCC[C@H]1[C@H](OC)[C@@H](C)C(=O)N[C@@H](Cc1cccc(Cl)c1)C(=O)O)OC)N(C)C(=O)[C@@H](NC(=O)[C@@H](NC)C(C)C)C(C)C [Compound 31, (S)-3-(3-chlorophenyl)-2-((2R,3R)-3-((S)-1-((3R,4S,5S)-4-((S)—N,3-dimethyl-2-((S)-3-methyl-2-(methylamino)butanamido)butanamido)-3-methoxy-5-methylheptanoyl)pyrrolidin-2-yl)-3-methoxy-2-methylpropanamido)propanoic acid] (H-[NMeV]V[Dil][Dolaproine][Phe(3-Cl)]-OH)	–	–	–	–	130	100
C=C1C[C@@H]([C@H](OC)[C@@H](C)C(=O)N[C@@H](Cc2ccccc2)C(=O)O)N(C(=O)C[C@@H](OC)[C@H]([C@@H](C)CC)N(C)C(=O)[C@@H](NC(=O)[C@@H](NC)C(C)C)C(C)C)C1 [Compound 9, (S)-2-((2R,3R)-3-((S)-1-((3R,4S,5S)-4-((S)—N,3-dimethyl-2-((S)-3-methyl-2-(methylamino)butanamido)butanamido)-3-methoxy-5-methylheptanoyl)-4-methylenepyrrolidin-2-yl)-3-methoxy-2-methylpropanamido)-3-phenylpropanoic acid] (H-[NMeV]V[Dil][X4]F-OH)	–	–	–	–	114	55
CC[C@H](C)[C@@H]([C@@H](CC(=O)N1CCC[C@H]1[C@H](OC)[C@@H](C)C(=O)N[C@@H](Cc1cccc(F)c1)C(=O)O)OC)N(C)C(=O)[C@@H](NC(=O)[C@@H](NC)C(C)C)C(C)C [Compound 32, (S)-2-((2R,3R)-3-((S)-1-((3R,4S,5S)-4-((S)—N,3-dimethyl-2-((S)-3-methyl-2-(methylamino)butanamido)butanamido)-3-methoxy-5-methylheptanoyl)pyrrolidin-2-yl)-3-methoxy-2-methylpropanamido)-3-(3-fluorophenyl)propanoic acid] (H-[NMeV]V[Dil][Dolaproine][Phe(3-F)]-OH)	–	–	–	–	13.5	17.4
